The values that follow come from patent EP0097202A1, “Hydrazinopyridazine compound, process for production thereof, and use thereof as medicament” (TEIKOKU HORMONE MFG. CO., LTD., priority 1982, dated 1984).

Like-named read-outs stand apart in the source and are kept apart here.

Assay type in all cases: in vivo, male Wistar rats
For one test, the target named is T1, β1-adrenoceptors (Rattus norvegicus, UniProt P18090).
T1 construct: Experiments were done using male Wistar rats weighing between 300 and 400 g, anesthetized with sodium pentobarbital; from tissue; host or cells: whole animal (anesthetized male Wistar rats), cardiac response in vivo
T1 sequence (P18090 whole entry): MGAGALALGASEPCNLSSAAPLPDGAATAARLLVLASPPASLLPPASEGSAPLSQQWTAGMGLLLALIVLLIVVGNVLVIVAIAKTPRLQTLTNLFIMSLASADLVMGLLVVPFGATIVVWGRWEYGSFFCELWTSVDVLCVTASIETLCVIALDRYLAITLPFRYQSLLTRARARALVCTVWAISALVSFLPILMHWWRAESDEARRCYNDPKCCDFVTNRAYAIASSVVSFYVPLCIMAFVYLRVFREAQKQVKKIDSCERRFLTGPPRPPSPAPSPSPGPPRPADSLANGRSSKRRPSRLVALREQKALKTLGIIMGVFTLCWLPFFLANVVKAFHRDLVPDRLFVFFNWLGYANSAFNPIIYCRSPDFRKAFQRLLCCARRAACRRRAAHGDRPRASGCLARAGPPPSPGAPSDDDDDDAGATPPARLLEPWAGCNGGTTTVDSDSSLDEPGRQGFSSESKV
The experiment in a line: β-adrenoceptor blocking activity: inhibition of the isoproterenol-induced increase in heart rate in anesthetized rats. As to conditions: iv, 0.05 h. As for the experimental part:
(§1) Experiments were done using male Wistar rats weighing between 300 and 400 g, anesthetized with sodium pentobarbital (60 mg/kg i.p.). The blood pressure was directly measured by connecting a cannula inserted in the femoral artery to a pressure transducer and the heart rate was calculated from the pulse waves of the blood pressure tracings. Each value shown here was obtained from three animals. The test compounds were individually dissolved in physiological saline solution or a 0.01 N aqueous solution of hydrochloric acid.
The increased heart rate before injection of the test compound was represented by H1. Three minutes after i.v. injection of the test compound, isoproterenol (0.1 µg/kg i.v.) was again administered and then the change in heart rate was measured. The maximum increase in heart rate after injection of the test compound was designated as H2. From these values, the percent inhibition of the change in heart rate was calculated in accordance with the following equation.
Percent inhibition of the heart rate [formula]
(§2) By repeating the procedure mentioned above at various doses of the test compounds, dose-response curves were prepared.

The nature of test [1]: vasodilating activity (hypotensive activity): maximum fall in blood pressure in anesthetized rats. Particulars: maximum fall in blood pressure during 40 minutes after 1 mg/kg i.v., three animals. How it is done:
as §1
Each test compound dissolved in physiological saline solution or 0.01 N hydrochloric acid was intravenously injected into rats in a fixed dose of 1 mg/kg and the blood pressure was continuously monitored for 40 minutes. The maximum fall in blood pressure during this period was determined and taken as the hypotensive activity of each compound.

A further test concerns β2-adrenoceptor. The test can be described thus: β-adrenoceptor blocking activity: inhibition of the isoproterenol-induced fall in blood pressure in anesthetized rats. Particulars: 50 % inhibition of fall in blood pressure by isoproterenol 0.1 µg/kg i.v. As for the experimental part: as §1, §2
The mark [2] stands for this setting: read-out: β-adrenoceptor blocking action ID50.

For the compound `CC(C)(COc1ccc(NN)nn1)NCC(O)COc1ccccc1` (stereo not shown) [A, 1-penoxy-3-[1,1-dimethyl-2-(3-hydrozino-6-pyridazinyloxy)ethylamino]-2-propanol], on β1-adrenoceptors (setting [2]), the ED50 was found to be 0.04 mg/kg. Also, the Hypotensive action entry in test [1] is reported as “++ (a fall in blood pressure of 25 to 34 mmHg)”.

Consider `Cc1ccc(C#N)c(OCC(O)CNC(C)(C)COc2ccc(NN)nn2)c1` (stereo not shown) [K, 1-(2-cyano-5-methylphenoxy)-3-[1,1-dimethyl-2-(3-hydrazino-6-pyridazinyloxy)ethylamino]-2-propanol], for which the ED50 at β1-adrenoceptors (setting [2]) came out at 0.05 mg/kg. Further, the “β-adrenoceptor blocking action ID50 β2” value in the test on β2-adrenoceptor is recorded as 0.1 mg/kg i.v. Further, the Hypotensive action entry in test [1] is reported as “+++ (35 mmHg or more)”.

Consider `CCOCc1ccccc1OCC(O)CNC(C)(C)COc1ccc(NN)nn1` (stereo not shown) [M, 1-(2-ethoxymethylphenoxy)-3-[1;1-dimethyl-2-(3-hydrazino-6-pyridazinyloxy)ethylamino]-2-propanol], for which, at β1-adrenoceptors (setting [2]), the ED50 is 0.06 mg/kg. In test [1], the Hypotensive action result is given as “++ (a fall in blood pressure of 25 to 34 mmHg)”.

As for `CC(C)(COc1ccc(NN)nn1)NCC(O)COc1ccccc1C#N` (stereo not shown) [I, 1-(2-cyanophenoxy)-3-[1,1-dimethyl-2-(3-hydrazino-6-pyridazinyloxy)ethylamino]-2-propanol], the ED50 on β1-adrenoceptors (setting [2]) stood at 0.02 mg/kg. Further, in the test on β2-adrenoceptor, the “β-adrenoceptor blocking action ID50 β2” value came to 0.1 mg/kg i.v. In test [1], the Hypotensive action entry was “+++ (35 mmHg or more)”.

For `CCc1ccccc1OCC(O)CNC(C)(C)COc1ccc(NN)nn1` (stereo not shown) [D, 1-(2-ethylphenoxy)-3-[1,1-dimethyl-2-(3-hydrazino-6-pyridazinyloxy)ethylamino]-2-propanol], the ED50 on β1-adrenoceptors (setting [2]) was determined as 0.2 mg/kg. Moreover, the Hypotensive action entry in test [1] was “+++ (35 mmHg or more)”.

For `C#Cc1ccccc1OCC(O)CNC(C)(C)COc1ccc(NN)nn1` (stereo not shown) [R, 1-(2-ethinylphenoxy)-3-[1,1-dimethyl-2-(3-hydrazino-6-pyridazinyloxy)ethylamino]-2-propanol], the ED50 on β1-adrenoceptors (setting [2]) came out at 0.02 mg/kg. In addition, the “β-adrenoceptor blocking action ID50 β2” value in the test on β2-adrenoceptor is reported as “No antagonistic action at 0.1”. Further, the Hypotensive action result in test [1] was “+++ (35 mmHg or more)”.

Turning to `CC(C)=NNc1ccc(OCC(C)(C)NCC(O)COc2cc(C)ccc2Cl)nn1` (stereo not shown) [G, 1-(2-chloro-5-methylphenoxy)-3-[1,1-dimethyl-2-(3-isopropylidenehydrazino-6-pyridazinyloxy)ethylamino]-2-propanol], on β1-adrenoceptors (setting [2]), the ED50 worked out at 0.15 mg/kg. Also, in test [1], the Hypotensive action entry is “++ (a fall in blood pressure of 25 to 34 mmHg)”.

`CC(C)(COc1ccc(NN)nn1)NCC(O)COc1cc(Cl)ccc1C#N` (stereo not shown) [J, 1-(2-cyano-5-chlorophenoxy)-3-[1,1-dimethyl-2-(3-hydrazino-6-pyridazinyloxy)ethylamino]-2-propanol]: the ED50 at β1-adrenoceptors (setting [2]) came out at 0.12 mg/kg. In test [1], the Hypotensive action result is recorded as “++ (a fall in blood pressure of 25 to 34 mmHg)”.

As for `CCOCCc1ccccc1OCC(O)CNC(C)(C)COc1ccc(NN)nn1` (stereo not shown) [O], the ED50 on β1-adrenoceptors (setting [2]) came to 0.16 mg/kg. Besides, the Hypotensive action entry in test [1] is given as “++ (a fall in blood pressure of 25 to 34 mmHg)”.

For `COCc1ccccc1OCC(O)CNC(C)(C)COc1ccc(NN)nn1` (stereo not shown) [L, 1-(2-methoxymethylphenoxy)-3-[1,1-dimethyl-2-(3-hydrazino-6-pyridazinyloxy)ethylamino]-2-propanol], the ED50 at β1-adrenoceptors (setting [2]) was found to be 0.03 mg/kg. In addition, in test [1], the Hypotensive action result was “+++ (35 mmHg or more)”.

On to `Cc1ccccc1OCC(O)CNC(C)(C)CSc1ccc(NN)nn1` (stereo not shown) [Q, 1-(2-methylphenoxy)-3-[1,1-dimethyl-2-(3-hydrazino-6-pyridazinylthio)ethylamino]-2-propanol], for which the ED50 at β1-adrenoceptors (setting [2]) was determined as 0.04 mg/kg. Moreover, the Hypotensive action entry in test [1] is recorded as “++ (a fall in blood pressure of 25 to 34 mmHg)”.

As for `CC(C)NCC(O)COc1ccc(CC(N)=O)cc1` (stereo not shown) [Atenolol, reference compound], on β1-adrenoceptors (read-out: β-adrenoceptor blocking action ID50 β1), the ED50 amounted to 0.05 mg/kg. Also, in the test with β2-adrenoceptor, the “β-adrenoceptor blocking action ID50 β2” value was determined as 1.5 mg/kg i.v.

In the case of `C=CCOc1ccccc1OCC(O)CNC(C)(C)COc1ccc(NN)nn1` (stereo not shown) [P, 1-(2-allyloxyphenoxy)-3-[1,1-dimethyl-2-(3-hydrazino-6-pyridazinyloxy)ethylamino]-2-propanol], the ED50 at β1-adrenoceptors (setting [2]) came to 0.1 mg/kg. Further, in test [1], the Hypotensive action result is recorded as “++ (a fall in blood pressure of 25 to 34 mmHg)”.

For the compound `COCCc1ccccc1OCC(O)CNC(C)(C)COc1ccc(NN)nn1` (stereo not shown) [N, 1-[2-(2-methoxyethyl)phenoxy]-3-[1,1-dimethyl-2-(3-hydrazino-6-pyridazinyloxy)ethylamino]-2-propanol], the ED50 at β1-adrenoceptors (setting [2]) was determined as 0.08 mg/kg. The Hypotensive action result in test [1] is “+++ (35 mmHg or more)”.

In the case of `Cc1cccc(OCC(O)CNC(C)(C)COc2ccc(NN)nn2)c1Cl` (stereo not shown) [F, 1-(2-chloro-3-methylphenoxy)-3-[1,1-dimethyl-2-(3-hydrazino-6-pyridazinyloxy)ethylamino]-2-propanol], the ED50 at β1-adrenoceptors (setting [2]) came to 0.08 mg/kg. The Hypotensive action result in test [1] is listed as “++ (a fall in blood pressure of 25 to 34 mmHg)”.

On to `CC(C)(COc1ccc(NN)nn1)NCC(O)COc1ccccc1Cl` (stereo not shown) [B, 1-(2-chlorophenoxy)-3-[1,1-dimethyl-2-(3-hydrozino-6-pyridazinyloxy)ethylamino]-2-propanol], for which the ED50 at β1-adrenoceptors (setting [2]) came out at 0.008 mg/kg. Moreover, in the test with β2-adrenoceptor, the “β-adrenoceptor blocking action ID50 β2” value is recorded as 0.23 mg/kg i.v. Further, the Hypotensive action result in test [1] was “+++ (35 mmHg or more)”.

Turning to `Cc1ccc(Cl)c(OCC(O)CNC(C)(C)COc2ccc(NN)nn2)c1` (stereo not shown) [H, 1-(2-chloro-5-methylphenoxy)-3-[1,1-dimethyl-2-(3-hydrazino-6-pyridazinyloxy)ethylamino]-2-propanol], on β1-adrenoceptors (setting [2]), the ED50 stood at 0.15 mg/kg. Moreover, the Hypotensive action result in test [1] is “++ (a fall in blood pressure of 25 to 34 mmHg)”.

Take `CCCc1ccccc1OCC(O)CNC(C)(C)COc1ccc(NN)nn1` (stereo not shown) [E, 1-(2-propylphenoxy)-3-[1,1-dimethyl-2-(3-hydrazino-6-pyridazinyloxy)ethylamino]-2-propanol]: the ED50 on β1-adrenoceptors (setting [2]) was 0.2 mg/kg. Besides, the Hypotensive action entry in test [1] was “++ (a fall in blood pressure of 25 to 34 mmHg)”.

With `Cc1ccccc1OCC(O)CNC(C)(C)COc1ccc(NN)nn1` (stereo not shown) [C, 1-(2-methylphenoxy)-3-[1,1-dimethyl-2-(3-hydrazino-6-pyridazinyloxy)ethylamino]-2-propanol], the ED50 on β1-adrenoceptors (setting [2]) turned out to be 0.015 mg/kg. The “β-adrenoceptor blocking action ID50 β2” value with β2-adrenoceptor is given as 0.45 mg/kg i.v. For the same compound, the Hypotensive action entry in test [1] was “+++ (35 mmHg or more)”.
